Test results published in patent publication US12115209B2, “ROMO1-derived antimicrobial peptides including lysine substitution and variants thereof” (KOREA UNIVERSITY RESEARCH AND BUSINESS FOUNDATION, priority 2019, dated 2024).
≈ marks a conversion by molar mass, not a printed value. Non-standard residues stand in square brackets, D forms with d. Residues, ends and D or L forms follow the SMILES beside them. No end group written: not given here. Nle = CCCC[C@H](N)C(=O)O

Key:
Type in all cases: cell-based
[1] = system: Pseudomonas aeruginosa, Staphylococcus aureus, CRPA, MRSA; assay: Increase in antibacterial activity (MBC) compared with KU-5878; details: mark = antibacterial activity increased compared with KU-5878
[2] = system: Pseudomonas aeruginosa (ATCC 27853); assay: Minimum bactericidal concentration (MBC) assay; details: Tables 11-21, no unit printed
Description: (§1) First, each of Pseudomonas aeruginosa (ATCC 27853) and Staphylococcus aureus (ATCC 29213) was cultured in 3% (w/v) TSB (tryptic soy broth) liquid medium at 37° C. and 200 rpm for 4 hours, and then further cultured under the same conditions for 3 hours to a concentration of 5×10^6 CFU/ml. Strain solutions were prepared by diluting each of the further cultured strains with SP (sodium phosphate; 10 mM sodium phosphate, 1% TSB) buffer to a final concentration of 2×10^5 CFU/ml.
(§2) Then, each peptide at varying concentrations (0 μg/ml to 300 μg/ml) was dispensed into each well of a 96-well microplate, and 100 μl (1×10^5 CFU/ml) of each of the prepared strain solutions was added thereto, mixed therewith, and allowed to react with the peptide in an incubator at 37° C. for 1 hour.
(§3) In addition, 30 g/L of TS (tryptic soy) and 15 g/L of agar were dissolved in distilled water and sterilized, and then 25 ml of the solution was poured onto a 100 mm round plate and solidified at room temperature for one day or more, thereby preparing a TS agar plate. 10 μl of each reaction solution of the peptide and the strain was plated on the TS agar plate at a constant size, and incubated in an incubator at 37° C. for 18 hours, and then colony formation on the plate was checked. The minimum bactericidal concentration was defined as the minimum concentration of the peptide at which no colony was formed, and the experimental results are shown in Table 1 below.

[3] = system: Staphylococcus aureus (ATCC 29213); assay: Minimum bactericidal concentration (MBC) assay; details: Tables 11-21, no unit printed
Description: as §1, §2, §3

[4] = system: Methicillin-resistant Staphylococcus aureus (MRSA, ATCC 33591); assay: Minimum bactericidal concentration (MBC) assay; details: Tables 11-21, no unit printed
Description: First, each of Pseudomonas aeruginosa (ATCC 27853) and Staphylococcus aureus (ATCC 29213) was cultured in 3% (w/v) TSB (tryptic soy broth) liquid medium at 37° C. and 200 rpm for 4 hours, and then further cultured under the same conditions for 3 hours to a concentration of 5×10^6 CFU/ml. Strain solutions were prepared by diluting each of the further cultured strains with SP (sodium phosphate; 10 mM sodium phosphate, 1% TSB) buffer to a final concentration of 2×10^5 CFU/ml. […]
In addition, 30 g/L of TS (tryptic soy) and 15 g/L of agar were dissolved in distilled water and sterilized, and then 25 ml of the solution was poured onto a 100 mm round plate and solidified at room temperature for one day or more, thereby preparing a TS agar plate. 10 μl of each reaction solution of the peptide and the strain was plated on the TS agar plate at a constant size, and incubated in an incubator at 37° C. for 18 hours, and then colony formation on the plate was checked.
Specifically, each type of bacteria was cultured in 3% (w/v) TSB (tryptic soy broth) liquid medium at 37° C. and 200 rpm for 4 hours, and then further cultured under the same conditions for 3 hours to a concentration of 5×10^6 CFU/ml. Strain solutions were prepared by diluting each of the further cultured strains with SP buffer to a final concentration of 2×10^5 CFU/ml.
Then, the KU-5878 peptide at varying concentrations (0 μg/ml to 300 μg/ml) was dispensed into each well of a 96-well microplate, and 100 μl (1×10^5 CFU/ml) of each of the prepared strain solutions was added thereto, mixed therewith, and allowed to react with the peptide in an incubator at 37° C. for 1 hour.
In addition, 10 μl of each reaction solution of the peptide and the strain was plated on the TS agar plate at a constant size, and incubated in an incubator at 37° C. for 18 hours, and then colony formation on the plate was checked.

[5] = system: CRPA; assay: Minimum bactericidal concentration (MBC) assay; details: Tables 11-21, no unit printed

CCCC[C@H](NC(=O)CNC(=O)[C@@H](NC(=O)[C@H](C)NC(=O)[C@H](CCCC)NC(=O)[C@H](Cc1ccccc1)NC(=O)[C@@H](NC(=O)CNC(=O)[C@H](Cc1ccccc1)NC(=O)[C@@H](NC(=O)CNC(=O)CNC(=O)[C@H](CO)NC(=O)[C@H](CCC(N)=O)NC(=O)[C@H](CCCC)NC(=O)[C@H](CCCC)NC(=O)[C@@H](NC(=O)[C@@H](N)CCCCN)[C@@H](C)O)[C@@H](C)O)[C@@H](C)O)[C@@H](C)CC)C(=O)NCC(=O)N[C@H](C(=O)N[C@@H](CCCNC(=N)N)C(=O)O)[C@@H](C)CC [KU-5878-4Nle] (H-KT[Nle][Nle]QSGGTFGTF[Nle]AIG[Nle]GIR-OH; N-terminus and C-terminus assumed)
Increase in activity [1]: antibacterial activity of the peptide was improved
MBC Pseudomonas aeruginosa [2]: 110 µg/mL (≈ 51.1 µM)
MBC Staphylococcus aureus [3]: 90 µg/mL (≈ 41.8 µM)
MBC MRSA [4]: 100 µg/mL (≈ 46.5 µM)
MBC CRPA [5]: 100 µg/mL (≈ 46.5 µM)

KTMMQSGGTFG-FMAIGMGIR [Peptide 5878-d69T]
MBC Pseudomonas aeruginosa [2]: 120 µg/mL
MBC Staphylococcus aureus [3]: 120 µg/mL
MBC MRSA [4]: 140 µg/mL
MBC CRPA [5]: 140 µg/mL

KTMMQSGGTFGAFMAIGMGIR [KU-5878-T69A]
MBC Pseudomonas aeruginosa [2]: 300 µg/mL
MBC Staphylococcus aureus [3]: 300 µg/mL
MBC MRSA [4]: 300 µg/mL
MBC CRPA [5]: 300 µg/mL

KTMMQSGGTFGKFMAIGMGIR [KU-5878-T69K]
MBC Pseudomonas aeruginosa [2]: 140 µg/mL
MBC Staphylococcus aureus [3]: 130 µg/mL
MBC MRSA [4]: 150 µg/mL
MBC CRPA [5]: 150 µg/mL

KTMMQSGGTFGT-MAIGMGIR [Peptide 5878-d70F]
MBC Pseudomonas aeruginosa [2]: 200 µg/mL
MBC Staphylococcus aureus [3]: 200 µg/mL
MBC MRSA [4]: 200 µg/mL
MBC CRPA [5]: 200 µg/mL

KTMMQSGGTFGTF-AIG-GIR [5878-d71M, d75M]
MBC Pseudomonas aeruginosa [2]: 300 µg/mL
MBC Staphylococcus aureus [3]: 250 µg/mL
MBC MRSA [4]: 300 µg/mL
MBC CRPA [5]: 300 µg/mL

KTMMQSGGTFGTF-AIGMGIR [Peptide 5878-d71M]
MBC Pseudomonas aeruginosa [2]: 250 µg/mL
MBC Staphylococcus aureus [3]: 250 µg/mL
MBC MRSA [4]: 300 µg/mL
MBC CRPA [5]: 300 µg/mL

KTMMQSGGTFGTFM-IGMGIR [Peptide 5878-d72A]
MBC Pseudomonas aeruginosa [2]: 150 µg/mL
MBC Staphylococcus aureus [3]: 150 µg/mL
MBC MRSA [4]: 160 µg/mL
MBC CRPA [5]: 170 µg/mL

KTMMQSGGTFGTFMA-GMGIR [Peptide 5878-4731]
MBC Pseudomonas aeruginosa [2]: > 300 µg/mL
MBC Staphylococcus aureus [3]: > 300 µg/mL
MBC MRSA [4]: > 300 µg/mL
MBC CRPA [5]: > 300 µg/mL

KTMMQSGGTFGTFMAAGMGIR [KU-5878-I73A]
MBC Pseudomonas aeruginosa [2]: > 300 µg/mL
MBC Staphylococcus aureus [3]: > 300 µg/mL
MBC MRSA [4]: > 300 µg/mL
MBC CRPA [5]: > 300 µg/mL

KTMMQSGGTFGTFMAIGMAIR [KU-5878-G76A]
MBC Pseudomonas aeruginosa [2]: > 300 µg/mL
MBC Staphylococcus aureus [3]: > 300 µg/mL
MBC MRSA [4]: > 300 µg/mL
MBC CRPA [5]: > 300 µg/mL

KTMMQSGGTFGTFMAIGMG-R [Peptide 5878-d77I]
MBC Pseudomonas aeruginosa [2]: > 300 µg/mL
MBC Staphylococcus aureus [3]: > 300 µg/mL
MBC MRSA [4]: > 300 µg/mL
MBC CRPA [5]: > 300 µg/mL

KTMMQSGGTFGTFMAIGMGAR [KU-5878-I77A]
MBC Pseudomonas aeruginosa [2]: > 300 µg/mL
MBC Staphylococcus aureus [3]: > 300 µg/mL
MBC MRSA [4]: > 300 µg/mL
MBC CRPA [5]: > 300 µg/mL

KTMMQSGGTFGTFMAIGMGGR [KU-5878-I77G]
MBC Pseudomonas aeruginosa [2]: 80 µg/mL
MBC Staphylococcus aureus [3]: 90 µg/mL
MBC MRSA [4]: 90 µg/mL
MBC CRPA [5]: 100 µg/mL

KTMMQSGGTFGTFMAIGMGI [KU-5877]
MBC Pseudomonas aeruginosa [2]: 300 µg/mL
MBC Staphylococcus aureus [3]: 300 µg/mL
MBC MRSA [4]: > 300 µg/mL
MBC CRPA [5]: > 300 µg/mL

KTMMQSGGTFGTFMAIGMGIA [KU-5878-R78A]
MBC Pseudomonas aeruginosa [2]: > 300 µg/mL
MBC Staphylococcus aureus [3]: > 300 µg/mL
MBC MRSA [4]: > 300 µg/mL
MBC CRPA [5]: > 300 µg/mL

KTMMQSGGTFGTFMAIGMGIK [KU-5878-R78K]
MBC Pseudomonas aeruginosa [2]: > 300 µg/mL
MBC Staphylococcus aureus [3]: > 300 µg/mL
MBC MRSA [4]: > 300 µg/mL
MBC CRPA [5]: > 300 µg/mL

KTMMQSGGTFGTFMAIGMGIRQ [Peptide 5878-Q]
MBC Pseudomonas aeruginosa [2]: 150 µg/mL
MBC Staphylococcus aureus [3]: 180 µg/mL
MBC MRSA [4]: 180 µg/mL
MBC CRPA [5]: 180 µg/mL

KTMMQSGGTFGTFMAIGMGKR [KU-5878-I77K]
MBC Pseudomonas aeruginosa [2]: > 300 µg/mL
MBC Staphylococcus aureus [3]: > 300 µg/mL
MBC MRSA [4]: > 300 µg/mL
MBC CRPA [5]: > 300 µg/mL

KTMMQSGGTFGTFMAIGMGTR [KU-5878-I77T]
MBC Pseudomonas aeruginosa [2]: > 300 µg/mL
MBC Staphylococcus aureus [3]: > 300 µg/mL
MBC MRSA [4]: > 300 µg/mL
MBC CRPA [5]: > 300 µg/mL

KTMMQSGGTFGTFMAKGMGIR [KU-5878-I73K]
MBC Pseudomonas aeruginosa [2]: > 300 µg/mL
MBC Staphylococcus aureus [3]: > 300 µg/mL
MBC MRSA [4]: > 300 µg/mL
MBC CRPA [5]: > 300 µg/mL

KTMMQSGGTFGTFMAWGMGIR [KU-5878-I73W]
MBC Pseudomonas aeruginosa [2]: 300 µg/mL
MBC Staphylococcus aureus [3]: 300 µg/mL
MBC MRSA [4]: > 300 µg/mL
MBC CRPA [5]: 300 µg/mL

KTMMQSGGTFGTFMGIGMGIR [KU-5878-A72G]
MBC Pseudomonas aeruginosa [2]: > 300 µg/mL
MBC Staphylococcus aureus [3]: > 300 µg/mL
MBC MRSA [4]: > 300 µg/mL
MBC CRPA [5]: > 300 µg/mL

KTMMQSGGTFGTKMAIGMGIR [KU-5878-F70K]
MBC Pseudomonas aeruginosa [2]: > 300 µg/mL
MBC Staphylococcus aureus [3]: > 300 µg/mL
MBC MRSA [4]: > 300 µg/mL
MBC CRPA [5]: > 300 µg/mL

KTMMQSGGTFGTWMAIGMGIR [KU-5878-F70W]
MBC Pseudomonas aeruginosa [2]: 300 µg/mL
MBC Staphylococcus aureus [3]: 300 µg/mL
MBC MRSA [4]: > 300 µg/mL
MBC CRPA [5]: 300 µg/mL

KTMMQSGGTWGTFMAIGMGIR [KU-5878-F67W]
MBC Pseudomonas aeruginosa [2]: 80 µg/mL
MBC Staphylococcus aureus [3]: 80 µg/mL
MBC MRSA [4]: 90 µg/mL
MBC CRPA [5]: 80 µg/mL

KTMMQTGGTFGTFMAIGMGIR [KU-5878-S63T]
MBC Pseudomonas aeruginosa [2]: > 300 µg/mL
MBC Staphylococcus aureus [3]: > 300 µg/mL
MBC MRSA [4]: > 300 µg/mL
MBC CRPA [5]: > 300 µg/mL

KTMMRSGGTFGTFMAIGMGIR [KU-5878-Q62R]
MBC Pseudomonas aeruginosa [2]: 80 µg/mL
MBC Staphylococcus aureus [3]: 80 µg/mL
MBC MRSA [4]: 90 µg/mL
MBC CRPA [5]: 80 µg/mL

KTMMSSGGTFGTFMAIGMGIR [KU-5878-Q62S]
MBC Pseudomonas aeruginosa [2]: > 300 µg/mL
MBC Staphylococcus aureus [3]: > 300 µg/mL
MBC MRSA [4]: > 300 µg/mL
MBC CRPA [5]: > 300 µg/mL

RTMMQSGGTFGTFMAIGMGIR [KU-5878-K58R]
MBC Pseudomonas aeruginosa [2]: 120 µg/mL
MBC Staphylococcus aureus [3]: 120 µg/mL
MBC MRSA [4]: 120 µg/mL
MBC CRPA [5]: 120 µg/mL
